Patent US20240091254A1, “WNT AGONISTS FOR PREVENTION OF CANCER” (ACADEMISH MEDISCH CENTRUM, priority 2021, published 2024)

What was measured:
KrasG12D-mutant clones = experiment: KrasG12D clone dynamics in vivo with or without LiCl; design: species or system mouse; conditions: Lgr5-CreErt2;Rosa26mTmG;KrasG12D mice
Protocol: (§1) Lgr5-EGFP-IRES-Cre^ERT2 Villin-Cre^ERT2, Rosa26mTmG, Apc^fl/fl and Kras^G12D mice have been described earlier^30-34. All in vivo experiments were approved by the animal experimentation committee at the Amsterdam UMC—location Academic Medical Center in Amsterdam under nationally registered licence number AVD1180020172125 and performed according to national guidelines. Mice were housed in a 12 hour light/12 hour dark cycle, with temperatures between 20-24° C. and 40-70% humidity. For short term assays, both male and female mice were used. For long term assays, only females were used to prevent the risk of preliminary dropout due to fighting male mice. […] For all mouse experiments, sufficient sample sizes were determined based on previous studies with a similar study design^3,35. Experimental animals were randomly assigned to the control or lithium treated groups, clone sizes and adenoma counts were scored blindly. […] Mouse discomfort during tumour formation assays was closely monitored, and endpoints were determined as <15% weight loss within 2 days or a mouse grimace scale (MGS) score<3. […] After 60 days, intestines were removed and polyps were counted macroscopically.
(§2) After the mice were sacrificed, intestines were removed fully and washed thoroughly with ice-cold PBS. […] For all crypt analyses, clone sizes were quantified as proportions of the crypt circumference (in eights, 1:8-8:8). […]

[1] = system: intestinal stem cells (ISCs) / intestinal epithelial cells; experiment: Oral LiCl in WT Lgr5-CreErt2;Rosa26mTmG mice: Wnt activation and neutral ISC dynamics; assay type: in vivo, mouse
Protocol: as §1, §2

[2] = Lithium levels in mouse serum after oral LiCl; assay type: in vivo; conditions: oral LiCl 300 mg/liter in tap water, Lgr5-CreErt2;Rosa26mTmG mice
Protocol: Lgr5-EGFP-IRES-Cre^ERT2 Villin-Cre^ERT2, Rosa26mTmG, Apc^fl/fl and Kras^G12D mice have been described earlier^30-34. All in vivo experiments were approved by the animal experimentation committee at the Amsterdam UMC—location Academic Medical Center in Amsterdam under nationally registered licence number AVD1180020172125 and performed according to national guidelines. Mice were housed in a 12 hour light/12 hour dark cycle, with temperatures between 20-24° C. and 40-70% humidity. For short term assays, both male and female mice were used. For long term assays, only females were used to prevent the risk of preliminary dropout due to fighting male mice. All mice were between 6-12 weeks old at the start of the experiments. For all mouse experiments, sufficient sample sizes were determined based on previous studies with a similar study design^3,35. Experimental animals were randomly assigned to the control or lithium treated groups, clone sizes and adenoma counts were scored blindly. […] Mouse discomfort during tumour formation assays was closely monitored, and endpoints were determined as <15% weight loss within 2 days or a mouse grimace scale (MGS) score<3. […] After 60 days, intestines were removed and polyps were counted macroscopically.

[Cl-].[Li+] [LiCl, lithium chloride]
KrasG12D clone dynamics (KrasG12D-mutant clones): remained unaffected
Influence on fundamental ISC dynamics (neutral ISC competition) ([1]; WT mice, oral LiCl): no influence on fundamental ISC dynamics
Wnt activation in intestinal epithelial cells (Lgr5 expression, Lgr5-GFP cells) ([1]; oral LiCl 300 mg/liter in tap water): effective Wnt activation
Serum concentrations (Li+), tolerability [2]: well-tolerated serum concentrations
